For orientation: IC50 means the concentration that gives 50% inhibition.

The values below come from US9957546B2, “Vivo detection of phospholipase activation” (THE TRUSTEES OF THE UNIVERSITY OF PENNSYLVANIA, priority 2008, dated 2018).

Series [1] in a line: Incorporation of Pyro-PL into PtdCho vesicles (self quenching/aggregation). It is filed as physicochemical. As to conditions: 1 μM Pyro-PL, [PtdCho]>200 μM. How it is done: A measured amount of Pyro-PL-BHQ or Pyro-PL (ε=110,000 M^−1 cm^−1 at 410 nm) was combined with PtdCho (chicken egg, Avanti Polar Lipids, Inc., Alabaster, Ala.) in chloroform and dried under a stream of nitrogen.
In order to determine the mole fraction (MF) at which all fluorophore can be assumed to be completely incorporated and intercalated into the PtdCho vesicles, an experiment was conducted in which the concentration of PtdCho was varied while Pyro-PL concentration was held constant at 1 μM (FIG. 4A). The fluorescence intensity increases as the Pyro-PL disperses into the PtdCho vesicles. The fluorescence plateaus at the point at which aggregation is negligible.

Series [2] can be described thus: In vivo distribution of Pyro-PL (Maestro spectral deconvolution, ex vivo IVIS organ imaging). Further details: species or system mice. The method, then:
Methods for separation of probe fluorescence and autofluorescence have been developed that result in a more accurate detection of in vivo probe fluorescence. In FIG. 11, mice injected with the permanently fluorescent Pyro-PL are imaged with the CRI Maestro System, and the resulting images resolved into probe and autofluorescence on the basis of emission spectrum deconvolution. These images confirm that Pyro-PL localizes in the tumor within minutes, and persists for about 3 hours, consistent with FIGS. 12A and 13A. By 2 hours, the probe is also being removed from circulation, with concentration first in the liver, and then in the intestine for excretion in the stool.

Series [3] is described as follows: Tolerability of Pyro-PL in mice. The series is classed as in vivo.
For series [4], the target named is PC-PLC (Bacillus cereus, UniProt P09598). How it is done:
Phospholipase (0.5 to 5 units) are added to 1 μM fluorophore-BHQ in PtdCho vesicles_(MF=0.05) to yield a final volume of 100 μL. Initial velocities are measured as a function of enzyme concentration. For bulk kinetics, an enzyme concentration that gives a linear response is chosen. The lipid dispersions is diluted in buffer such that the fluorophore-BHQ concentration varies from 0.3-3 μM. The temperature is held at 37° C. and phospholipase added to a total volume of 100 μL. The released fluorescence is measured and the initial velocities recorded as a function of bulk lipid concentration. A Lineweaver-Burke plot of 1/V0 vs 1/[S] gives a straight line with […] and y intercept of 1/Vmax. For interfacial kinetics, lipid dispersions of fluorophore-BHQ and PtdCho are diluted in Triton X-100 with the total lipid concentration held at 20 μM. The ratios of fluorophore-BHQ to PtdCho are held constant, but varied relative to the MF of Triton with a total MF of fluorophore-BHQ of =0.01-0.05). Initial velocities are recorded as a function of concentration, and kinetic parameters are calculated.
Activity, in RFU/min/mg, was measured as a function of D609 concentration after the addition of 0.5 U PC-PLC (FIG. 2D).

For series [5], the system named is PC-PLC. Conditions: Amplex Red, resorufin fluorescence. An excerpt:
To validate the presence of PC-PLC activity in DU145 tumor xenografts, the Amplex Red PC-PLC assay kit (Molecular Probes) was used to measure PC-PLC activity in extracts of excised tumors.

A short description of series [6]: Quenching of Pyro fluorescence (fluorescence emission spectra). It is filed as physicochemical. The text has this: In Pyro-PL-BHQ, BHQ acts as an effective quencher of Pyro fluorescence, reducing the fluorescence emission relative to Pyro-PL between 25-fold (for λex=675, λem=725 nm) and 45-fold (for λex=418, λem=695 nm) (FIG. 14).
For series [7], the system named is DU145 prostate cells. The series is described as follows: Cell uptake and in situ activation, laser confocal microscopy. The series is classed as cell-based, human. As to conditions: 10 mM PB, 6 h.

Sequence of PC-PLC (Bacillus cereus, UniProt P09598) (P09598 39-283 limits assumed): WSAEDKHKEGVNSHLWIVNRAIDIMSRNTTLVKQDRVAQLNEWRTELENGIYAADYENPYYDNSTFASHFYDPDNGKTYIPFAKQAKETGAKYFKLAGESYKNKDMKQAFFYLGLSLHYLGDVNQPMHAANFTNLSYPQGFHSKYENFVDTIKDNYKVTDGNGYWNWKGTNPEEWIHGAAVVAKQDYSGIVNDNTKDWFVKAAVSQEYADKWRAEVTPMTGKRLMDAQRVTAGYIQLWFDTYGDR

`C=Cc1c(C)c2cc3nc(c4c5[nH]c(cc6nc(cc1[nH]2)C(C)=C6CC)c(C)c5C(=O)C4)C(CCC(=O)OC(COC(=O)CCCCCCCCCCCCCCC)COP(=O)(O)OCCN)C3C` (stereo not drawn) [Pyro-PL]: the “Pyro-PL mole fraction (MF) at which fluorescence plateaus (aggregation negligible)” value in series [1] is below 0.005. For the same compound, the “organ fluorescence at 2 h” value in series [2] (2 h) was “majority of the fluorescence appears in the liver”. Also, the “organ fluorescence ex vivo at 24 h” value in series [2] (IVIS, 24 h) is “major fluorescence persisted in the liver, kidney and digestive tract”. Further, the “time of accumulation in the tumor” value in series [2] (Maestro system) was at most 10 min. Besides, the tolerability result in series [3] is listed as “well tolerated by mice”.
As for `S=C([S-])OC1CC2CC1C1CCCC21.[K+]` (stereo not drawn) [D609], the “Inhibition of PC-PLC hydrolysis of Pyro-PL-BHQ at 500 μM D609” value in series [4] (500 μM D609, 0.5 U PC-PLC) is “Complete inhibition”. The “Fluorescence release from Pyro-PL-BHQ/PtdCho vesicles in presence of inhibitor” value in series [4] (FIG. 3A) is reported as “inhibited”. Also, the IC50 in series [4] (read-out: IC50 of inhibition of PC-PLC activity toward Pyro-PL-BHQ, 1 μM Pyro-PL-BHQ, MF 0.003 in egg-PtdCho dispersions, 0.5 U PC-PLC) stood at 34 ± 8 µM. Moreover, in series [4] (read-out: Ki (x-intercept of Km(app)/Vmax(app) vs. D609), Lineweaver-Burke plot of inhibition using 8, 50, 100 μM D609), the Ki worked out at 250 µM. Further, in series [5], the “PC-PLC activity in tumor extracts as a function of D609 concentration” value was “decrease as a function of D609 concentration”.
`C=Cc1c(C)c2cc3nc(c4c5[nH]c(cc6nc(cc1[nH]2)C(C)=C6CC)c(C)c5C(=O)C4)C(CCC(=O)NCCCCCC(=O)OCC(COP(=O)([O-])OCC[N+](C)(C)C)OC(=O)CCCCCNC(=O)CCC1c2nc(cc4[nH]c(cc5nc(cc6[nH]c7c2CC(=O)c7c6C)C(CC)=C5C)c(C=C)c4C)C1C)C3C` (stereo not drawn) [PyroPyro-PL]: in series [6], the “quenching efficiency (second Pyro as acceptor)” value was around 4 fold.
Take phenylbutyrate [PB]: the “effect on Pyro-PL-BHQ fluorescence in cells” value in series [7] is listed as “fluorescence is increased”.
